From patent US20180228158A1, “COMPOSITIONS AND METHODS FOR CONTROL OF DISEASE” (Monsanto Technology LLC, priority 2017, published 2018) come the findings set out here.

Assay [1] relates to soybean sudden death syndrome (fungi of the genus Fusarium). Briefly: Field trial against soybean sudden death syndrome (seed treatment). The format is in vivo, Fusarium virguliforme. Further details: key to SDS incidence: % of affected plants; SDS severity: scale not given here. The note with it: for SDS severity: average severity of symptoms in the plots at harvest time; for SDS incidence: percentage of affected plants at harvest time in the fall. The protocol: (§1) A field trial was conducted to determine the efficacy of compounds as described herein against soybean sudden death syndrome. Soybean seeds were planted at the start of the spring growing season in a location where fungi of the genus Fusarium were endemic. Nothing special was done to encourage growth of the fungus or development of the SDS disease.
(§2) Compounds listed in Table 1 below were used to treat soybean seeds prior to planting.
(§3) Seeds treated with oxamyl, at a rate of 1 mg per seed, and non-treated seeds (NT) were included as controls.
(§4) Other typical agronomic data, including counts of soybean cyst nematode (SCN) eggs, were also collected throughout the trial. The percentage of affected plants and the observed SDS disease severity are graphically depicted in FIGS. 1 and 2, respectively.

In assay [2] the test system is soybean cyst nematode (SCN). Kind of assay: Field trial: counts of soybean cyst nematode (SCN) eggs. It is filed as in vivo. Particulars: for Fall Eggs/100 cc: SCN egg count in fall; for Spring Eggs/100 cc: SCN egg count in spring; for Mean RF: SCN eggs. The protocol: as §1, §2, §3, §4
The mark [3] stands for this setting: soybean seed treatment 0.5 mg/seed.
The mark [4] stands for this setting: soybean seed treatment 1 mg/seed.

On to `c1ccc(-c2noc(-c3cccs3)n2)cc1` [DC1822], for which, in assay [1] (setting [3]), the SDS severity turned out to be 2 and the SDS incidence amounted to 45. In assay [1] (setting [4]), this compound came in with an SDS severity of 1.5 and an SDS incidence of 28.75. Besides, in assay [2] (setting [3]), the “Fall Eggs/100 cc” value was 2600 eggs/100 cc, the “Spring Eggs/100 cc” value amounted to 1175 eggs/100 cc and the “Mean RF” value was found to be 3.875. Moreover, in assay [2] (setting [4]), the “Fall Eggs/100 cc” value is recorded as 2100 eggs/100 cc, the “Spring Eggs/100 cc” value is 700 eggs/100 cc and the “Mean RF” value is reported as 6.425.

As to `Clc1ccc(-c2noc(-c3ccco3)n2)cc1` [DC5523], in assay [1] (setting [3]), the SDS severity amounted to 2 and the SDS incidence was 47.5. In addition, in assay [1] (setting [4]), the SDS severity is reported as 2 and the SDS incidence was found to be 26.25. Further, in assay [2] (setting [3]), the “Fall Eggs/100 cc” value was found to be 1925 eggs/100 cc, the “Spring Eggs/100 cc” value is reported as 675 eggs/100 cc and the “Mean RF” value was 5.35. Moreover, in assay [2] (setting [4]), the “Fall Eggs/100 cc” value is 1725 eggs/100 cc, the “Spring Eggs/100 cc” value is on record as 800 eggs/100 cc and the “Mean RF” value is reported as 4.325.

In assay [1] (setting [3]), `Cc1cc(Cl)ccc1-c1noc(-c2ccco2)n1` [DC5823] came in with an SDS severity of 2.25 and an SDS incidence of 55. Moreover, in assay [1] (setting [4]), the SDS severity is given as 2.5 and the SDS incidence turned out to be 46.25. Further, in assay [2] (setting [3]), the “Fall Eggs/100 cc” value turned out to be 3325 eggs/100 cc, the “Spring Eggs/100 cc” value came to 1075 eggs/100 cc and the “Mean RF” value turned out to be 3.35. Besides, in assay [2] (setting [4]), the “Fall Eggs/100 cc” value stood at 1100 eggs/100 cc, the “Spring Eggs/100 cc” value worked out at 1450 eggs/100 cc and the “Mean RF” value came to 1.625.

`CNC(=O)O/N=C(\SC)C(=O)N(C)C` [Oxamyl, oxamyl, reference compound]: in assay [1] (setting [4]), the SDS severity was found to be 1.5 and the SDS incidence is 32.5. Moreover, in assay [2] (setting [4]), the “Fall Eggs/100 cc” value stood at 3075 eggs/100 cc, the “Spring Eggs/100 cc” value came out at 1050 eggs/100 cc and the “Mean RF” value was found to be 6.65.
